According to publication PMC3416963 (Biochemistry, 2012):

Biological target: LigI (Sphingobium sp. SYK-6, UniProt O87170)
Experiment: spectrophotometric PDC hydrolysis at […] nm
Format: biochemical

Chain of LigI (O87170 2-293): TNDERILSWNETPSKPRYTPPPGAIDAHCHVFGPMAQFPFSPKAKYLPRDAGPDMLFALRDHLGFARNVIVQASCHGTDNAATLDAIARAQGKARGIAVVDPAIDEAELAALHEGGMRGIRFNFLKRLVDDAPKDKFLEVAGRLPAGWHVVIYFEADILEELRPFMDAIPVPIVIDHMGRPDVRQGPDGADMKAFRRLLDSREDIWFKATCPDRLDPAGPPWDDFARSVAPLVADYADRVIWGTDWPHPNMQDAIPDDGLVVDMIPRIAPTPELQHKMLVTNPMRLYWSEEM

Compound	Ki
O=C(O)c1ccnc(C(=O)O)c1 [compound 2, pyridine-2,4-dicarboxylic acid]	75 ± 2 µM
O=C(O)c1cc(O)cc(C(=O)O)c1 [compound 5, 5-hydroxyisophthalic acid]	40 ± 3 µM
